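Dose response: 5 concentrations. Exposure: 48 h. Format: 96-well plates. Endpoint: linear interpolation; highest concentration if not reached. The concentration for 50% growth inhibition is given as GI50. TGI is the concentration that stops growth completely.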
Assays:
Test in all cases: growth of human tumour cells (NCI), 48 h
786-0 renal = test system: 786-0 renal
A498 renal = test system: A498 renal
A549 NSCLC = test system: A549 NSCLC
ACHN renal = test system: ACHN renal
BT-549 breast = test system: BT-549 breast
CAKI-1 renal = test system: CAKI-1 renal
CCRF-CEM leukemia = test system: CCRF-CEM leukemia
COLO 205 colon = test system: COLO 205 colon
DU-145 prostate = test system: DU-145 prostate
EKVX NSCLC = test system: EKVX NSCLC
HCC-2998 colon = test system: HCC-2998 colon
HCT-116 colon = test system: HCT-116 colon
HCT-15 colon = test system: HCT-15 colon
HL-60(TB) leukemia = test system: HL-60(TB) leukemia
HOP-62 NSCLC = test system: HOP-62 NSCLC
HOP-92 NSCLC = test system: HOP-92 NSCLC
HS 578T breast = test system: HS 578T breast
HT29 colon = test system: HT29 colon
IGROV1 ovarian = test system: IGROV1 ovarian
K-562 leukemia = test system: K-562 leukemia
KM12 colon = test system: KM12 colon
LOX IMVI melanoma = test system: LOX IMVI melanoma
M14 melanoma = test system: M14 melanoma
MALME-3M melanoma = test system: MALME-3M melanoma
MCF7 breast = test system: MCF7 breast
MDA-MB-231 breast = test system: MDA-MB-231 breast
MDA-MB-435 = test system: MDA-MB-435
MDA-MB-468 breast = test system: MDA-MB-468 breast
MOLT-4 leukemia = test system: MOLT-4 leukemia
NCI-H226 lung = test system: NCI-H226 lung
NCI-H23 lung = test system: NCI-H23 lung
NCI-H460 lung = test system: NCI-H460 lung
NCI-H522 lung = test system: NCI-H522 lung
NCI/ADR-RES ovarian = test system: NCI/ADR-RES ovarian
OVCAR-3 ovarian = test system: OVCAR-3 ovarian
OVCAR-5 ovarian = test system: OVCAR-5 ovarian
OVCAR-8 ovarian = test system: OVCAR-8 ovarian
PC-3 prostate = test system: PC-3 prostate
RPMI-8226 leukemia = test system: RPMI-8226 leukemia
RXF 393 renal = test system: RXF 393 renal
SF-268 CNS = test system: SF-268 CNS
SF-295 CNS = test system: SF-295 CNS
SF-539 CNS = test system: SF-539 CNS
SK-MEL-2 melanoma = test system: SK-MEL-2 melanoma
SK-MEL-28 melanoma = test system: SK-MEL-28 melanoma
SK-MEL-5 melanoma = test system: SK-MEL-5 melanoma
SK-OV-3 ovarian = test system: SK-OV-3 ovarian
SN12C renal = test system: SN12C renal
SNB-19 CNS = test system: SNB-19 CNS
SNB-75 CNS = test system: SNB-75 CNS
SR leukemia = test system: SR leukemia
SW-620 colon = test system: SW-620 colon
T-47D breast = test system: T-47D breast
TK-10 renal = test system: TK-10 renal
U251 CNS = test system: U251 CNS
UACC-257 melanoma = test system: UACC-257 melanoma
UACC-62 melanoma = test system: UACC-62 melanoma
UO-31 renal = test system: UO-31 renal

## COc1ccc(NC(=O)Cn2c(/C=C/c3cccc(OC)c3)nc3ccccc3c2=O)cc1
786-0 renal
  GI50: 1.54 µM
  TGI: 3.38 µM
A498 renal
  GI50: 1.96 µM
  TGI: 4.68 µM
A549 NSCLC
  GI50: 2.3 µM
  TGI: > 100 µM
ACHN renal
  GI50: 1.24 µM
  TGI: 3.17 µM
BT-549 breast
  GI50: 9.84 µM
  TGI: > 59.9 µM
CAKI-1 renal
  GI50: 2.52 µM
  TGI: > 31.7 µM
CCRF-CEM leukemia
  GI50: > 100 µM
  TGI: > 100 µM
COLO 205 colon
  GI50: > 100 µM
  TGI: > 100 µM
DU-145 prostate
  GI50: > 81.2 µM
  TGI: > 100 µM
EKVX NSCLC
  GI50: > 63.1 µM
  TGI: > 100 µM
HCC-2998 colon
  GI50: > 100 µM
  TGI: > 100 µM
HCT-116 colon
  GI50: 1.21 µM
  TGI: > 59 µM
HCT-15 colon
  GI50: > 100 µM
  TGI: > 100 µM
HL-60(TB) leukemia
  GI50: > 100 µM
  TGI: > 100 µM
HOP-62 NSCLC
  GI50: 3.01 µM
  TGI: 28.3 µM
HOP-92 NSCLC
  GI50: 2.95 µM
  TGI: > 44.7 µM
HS 578T breast
  GI50: 2.46 µM
  TGI: > 100 µM
HT29 colon
  GI50: > 100 µM
  TGI: > 100 µM
IGROV1 ovarian
  GI50: > 31 µM
  TGI: > 87.8 µM
K-562 leukemia
  GI50: > 100 µM
  TGI: > 100 µM
KM12 colon
  GI50: > 100 µM
  TGI: > 100 µM
LOX IMVI melanoma
  GI50: 2.03 µM
  TGI: > 100 µM
M14 melanoma
  GI50: > 29.3 µM
  TGI: > 100 µM
MALME-3M melanoma
  GI50: 3.79 µM
  TGI: > 85.8 µM
MCF7 breast
  GI50: 3.56 µM
  TGI: > 100 µM
MDA-MB-231 breast
  GI50: 1.4 µM
  TGI: 4.42 µM
MDA-MB-435
  GI50: > 100 µM
  TGI: > 100 µM
MDA-MB-468 breast
  GI50: 3.4 µM
  TGI: > 91.6 µM
MOLT-4 leukemia
  GI50: > 100 µM
  TGI: > 100 µM
NCI-H226 lung
  GI50: 1.98 µM
  TGI: 6.51 µM
NCI-H23 lung
  GI50: 3.69 µM
  TGI: > 44.3 µM
NCI-H460 lung
  GI50: 2.51 µM
  TGI: > 100 µM
NCI-H522 lung
  GI50: 5.8 µM
  TGI: > 47.5 µM
NCI/ADR-RES ovarian
  GI50: 4.14 µM
  TGI: 86.9 µM
OVCAR-3 ovarian
  GI50: 4.03 µM
  TGI: > 45.9 µM
OVCAR-5 ovarian
  GI50: > 24.9 µM
  TGI: > 100 µM
OVCAR-8 ovarian
  GI50: 4.55 µM
  TGI: > 100 µM
PC-3 prostate
  GI50: > 54 µM
  TGI: > 100 µM
RPMI-8226 leukemia
  GI50: > 100 µM
  TGI: > 100 µM
RXF 393 renal
  GI50: 1.93 µM
  TGI: 5.63 µM
SF-268 CNS
  GI50: 19.4 µM
  TGI: > 100 µM
SF-295 CNS
  GI50: 2.56 µM
  TGI: > 41.1 µM
SF-539 CNS
  GI50: 1.65 µM
  TGI: 4.15 µM
SK-MEL-2 melanoma
  GI50: 27.2 µM
  TGI: 79.6 µM
SK-MEL-28 melanoma
  GI50: > 75 µM
  TGI: > 100 µM
SK-MEL-5 melanoma
  GI50: > 100 µM
  TGI: > 100 µM
SK-OV-3 ovarian
  GI50: 5.67 µM
  TGI: > 46.7 µM
SN12C renal
  GI50: 1.85 µM
  TGI: > 39.1 µM
SNB-19 CNS
  GI50: 8.37 µM
  TGI: > 59.3 µM
SNB-75 CNS
  GI50: 1.63 µM
  TGI: 4.49 µM
SR leukemia
  GI50: 1.75 µM
  TGI: > 100 µM
SW-620 colon
  GI50: > 100 µM
  TGI: > 100 µM
T-47D breast
  GI50: 2.41 µM
  TGI: 14.6 µM
TK-10 renal
  GI50: 2.03 µM
  TGI: 4.5 µM
U251 CNS
  GI50: 0.973 µM
  TGI: 4.2 µM
UACC-257 melanoma
  GI50: > 100 µM
  TGI: > 100 µM
UACC-62 melanoma
  GI50: > 42.1 µM
  TGI: > 89.6 µM
UO-31 renal
  GI50: 1.73 µM
  TGI: 3.77 µM
